Measured values: PubChem BioAssay AID1963870 (Molecular Pharmacology Branch, DTP, NCI, 2024)

Tested on: 292921-168-R-J2-PDC KRAS tumor spheroid viability
Assay: Anticancer human tumor 292921-168-R-J2-PDC patient-derived pancreatic carcinoma cell line growth inhibition [KRAS2]
Details: spheroids with HUVEC and MSC; for viability, T/C: stronger effect = lower value
Method in brief: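 Combination screen of spheroid viability in tumor-cell co-cultures with endothelial (HUVEC) and mesenchymal stem cell stroma. Each agent was tested in half-log dilutions, topping at clinical Cmax or at 10 microM without a known Cmax.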

[1] = curve of first compound, second compound 0.0316 µM
[2] = curve of first compound, second compound 0.1 µM
[3] = curve of first compound, second compound 0.316 µM
[4] = curve of first compound, second compound 1 µM
[5] = curve of first compound, second compound 3.16 µM
[6] = second compound 0.0316 µM, first compound 0.0316 µM
[7] = second compound 0.0316 µM, first compound 0.1 µM
[8] = second compound 0.0316 µM, first compound 0.316 µM
[9] = second compound 0.0316 µM, first compound 1 µM
[10] = second compound 0.0316 µM, first compound 3.16 µM
[11] = second compound 0.0316 µM, first compound 10 µM
[12] = second compound 0.1 µM, first compound 0.0316 µM
[13] = second compound 0.1 µM, first compound 0.1 µM
[14] = second compound 0.1 µM, first compound 0.316 µM
[15] = second compound 0.1 µM, first compound 1 µM
[16] = second compound 0.1 µM, first compound 3.16 µM
[17] = second compound 0.1 µM, first compound 10 µM
[18] = second compound 0.316 µM, first compound 0.0316 µM
[19] = second compound 0.316 µM, first compound 0.1 µM
[20] = second compound 0.316 µM, first compound 0.316 µM
[21] = second compound 0.316 µM, first compound 1 µM
[22] = second compound 0.316 µM, first compound 3.16 µM
[23] = second compound 0.316 µM, first compound 10 µM
[24] = second compound 1 µM, first compound 0.0316 µM
[25] = second compound 1 µM, first compound 0.1 µM
[26] = second compound 1 µM, first compound 0.316 µM
[27] = second compound 1 µM, first compound 1 µM
[28] = second compound 1 µM, first compound 3.16 µM
[29] = second compound 1 µM, first compound 10 µM
[30] = second compound 3.16 µM, first compound 0.0316 µM
[31] = second compound 3.16 µM, first compound 0.1 µM
[32] = second compound 3.16 µM, first compound 0.316 µM
[33] = second compound 3.16 µM, first compound 1 µM
[34] = second compound 3.16 µM, first compound 3.16 µM
[35] = second compound 3.16 µM, first compound 10 µM
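Further: drug exposure lasted seven days after spheroids formed for three days.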
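Wherever viability, T/C is given: percent of DMSO vehicle control viability which is 100%.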

## CC1(C)CCC(CN2CCN(c3ccc(C(=O)NS(=O)(=O)c4ccc(NCC5CCOCC5)c([N+](=O)[O-])c4)c(Oc4cnc5[nH]ccc5c4)c3)CC2)=C(c2ccc(Cl)cc2)C1 + C=CC(=O)N1CCN(c2nc(OCC3CCCN3C)nc3c2CCN(c2cccc4cccc(C)c24)C3)CC1CC#N
[1]
  IC50: 2040 nM
[2]
  IC50: 2100 nM
[3]
  IC50: 1810 nM
[4]
  IC50: 430 nM
[5]
  IC50: < 31.6 nM
[6]
  viability, T/C: 99.8%
[7]
  viability, T/C: 101%
[8]
  viability, T/C: 96.1%
[9]
  viability, T/C: 92.5%
[10]
  viability, T/C: 23.8%
[11]
  viability, T/C: 4.26%
[12]
  viability, T/C: 98.1%
[13]
  viability, T/C: 103%
[14]
  viability, T/C: 100%
[15]
  viability, T/C: 96.1%
[16]
  viability, T/C: 24.7%
[17]
  viability, T/C: 4.98%
[18]
  viability, T/C: 88.2%
[19]
  viability, T/C: 98.4%
[20]
  viability, T/C: 83.2%
[21]
  viability, T/C: 90.2%
[22]
  viability, T/C: 12.6%
[23]
  viability, T/C: 4.29%
[24]
  viability, T/C: 58%
[25]
  viability, T/C: 59.7%
[26]
  viability, T/C: 52%
[27]
  viability, T/C: 35.3%
[28]
  viability, T/C: 2.72%
[29]
  viability, T/C: 2.98%
[30]
  viability, T/C: 0.13%
[31]
  viability, T/C: 0.2%
[32]
  viability, T/C: 0.14%
[33]
  viability, T/C: 0.12%
[34]
  viability, T/C: 0.37%
[35]
  viability, T/C: 0.26%

## Cn1ncnc1[C@H]1c2n[nH]c(=O)c3cc(F)cc(c23)N[C@@H]1c1ccc(F)cc1 + C=CC(=O)N1CCN(c2nc(OCC3CCCN3C)nc3c2CCN(c2cccc4cccc(C)c24)C3)CC1CC#N
[1]
  IC50: > 100 nM
[2]
  IC50: > 100 nM
[3]
  IC50: 81.9 nM
[4]
  IC50: < 0.316 nM
[5]
  IC50: < 0.316 nM
Second compound 0.0316 µM, first compound 0.000316 µM
  viability, T/C: 99.5%
Second compound 0.0316 µM, first compound 0.001 µM
  viability, T/C: 93%
Second compound 0.0316 µM, first compound 0.00316 µM
  viability, T/C: 93.2%
Second compound 0.0316 µM, first compound 0.01 µM
  viability, T/C: 93.6%
[6]
  viability, T/C: 81.7%
[7]
  viability, T/C: 67.3%
Second compound 0.1 µM, first compound 0.000316 µM
  viability, T/C: 96.7%
Second compound 0.1 µM, first compound 0.001 µM
  viability, T/C: 93.5%
Second compound 0.1 µM, first compound 0.00316 µM
  viability, T/C: 91.7%
Second compound 0.1 µM, first compound 0.01 µM
  viability, T/C: 83.6%
[12]
  viability, T/C: 77.6%
[13]
  viability, T/C: 63.7%
Second compound 0.316 µM, first compound 0.000316 µM
  viability, T/C: 88.1%
Second compound 0.316 µM, first compound 0.001 µM
  viability, T/C: 82.1%
Second compound 0.316 µM, first compound 0.00316 µM
  viability, T/C: 72.9%
Second compound 0.316 µM, first compound 0.01 µM
  viability, T/C: 74.9%
[18]
  viability, T/C: 65%
[19]
  viability, T/C: 46.4%
Second compound 1 µM, first compound 0.000316 µM
  viability, T/C: 42.1%
Second compound 1 µM, first compound 0.001 µM
  viability, T/C: 42.9%
Second compound 1 µM, first compound 0.00316 µM
  viability, T/C: 37.1%
Second compound 1 µM, first compound 0.01 µM
  viability, T/C: 32.5%
[24]
  viability, T/C: 29.8%
[25]
  viability, T/C: 28.3%
Second compound 3.16 µM, first compound 0.000316 µM
  viability, T/C: 0.3%
Second compound 3.16 µM, first compound 0.001 µM
  viability, T/C: 0.12%
Second compound 3.16 µM, first compound 0.00316 µM
  viability, T/C: 0.12%
Second compound 3.16 µM, first compound 0.01 µM
  viability, T/C: 0.11%
[30]
  viability, T/C: 0.13%
[31]
  viability, T/C: 0.17%

## COc1cc(Nc2ncc3c(n2)-c2ccc(Cl)cc2C(c2c(F)cccc2OC)=NC3)ccc1C(=O)O
Compound 0.0316 µM
  viability, T/C: 30.3% [middle of 5 runs]
Compound 0.1 µM
  viability, T/C: 28% [middle of 5 runs]
Compound 0.316 µM
  viability, T/C: 30.6% [middle of 5 runs]
Compound 1 µM
  viability, T/C: 28.6% [middle of 5 runs]
Compound 3.16 µM
  viability, T/C: 23.7% [middle of 5 runs]
Compound 10 µM
  viability, T/C: 17.8% [middle of 5 runs]
Curve of compound
  IC50: < 31.6 nM

## COc1cc2nccc(Oc3ccc(NC(=O)C4(C(=O)Nc5ccc(F)cc5)CC4)cc3)c2cc1OC + C=CC(=O)N1CCN(c2nc(OCC3CCCN3C)nc3c2CCN(c2cccc4cccc(C)c24)C3)CC1CC#N
[1]
  IC50: 2060 nM
[2]
  IC50: 1710 nM
[3]
  IC50: 1310 nM
[4]
  IC50: < 31.6 nM
[5]
  IC50: < 31.6 nM
[6]
  viability, T/C: 100%
[7]
  viability, T/C: 90.4%
[8]
  viability, T/C: 94.2%
[9]
  viability, T/C: 77.1%
[10]
  viability, T/C: 33.9%
[11]
  viability, T/C: 15.6%
[12]
  viability, T/C: 89.8%
[13]
  viability, T/C: 83.9%
[14]
  viability, T/C: 84.4%
[15]
  viability, T/C: 62.5%
[16]
  viability, T/C: 35.1%
[17]
  viability, T/C: 20.6%
[18]
  viability, T/C: 82%
[19]
  viability, T/C: 83.2%
[20]
  viability, T/C: 82.4%
[21]
  viability, T/C: 55.5%
[22]
  viability, T/C: 29.2%
[23]
  viability, T/C: 18.4%
[24]
  viability, T/C: 45.6%
[25]
  viability, T/C: 39%
[26]
  viability, T/C: 38.2%
[27]
  viability, T/C: 22.9%
[28]
  viability, T/C: 14.7%
[29]
  viability, T/C: 9.84%
[30]
  viability, T/C: 0.34%
[31]
  viability, T/C: 0.83%
[32]
  viability, T/C: 0.26%
[33]
  viability, T/C: 0.12%
[34]
  viability, T/C: 0.1%
[35]
  viability, T/C: 0.15%

## Cn1nccc1Nc1nccc(-c2cc3c(s2)C(C)(C)N(CCN2CCOCC2)C3=O)n1 + CNCc1ccccc1-c1csc(C(C)Nc2nc(C)nc3cc(OC)c(OC)cc23)c1
[2]
  IC50: 83.9 nM
[3]
  IC50: 66.6 nM
[4]
  IC50: < 31.6 nM
[5]
  IC50: < 31.6 nM
Curve of first compound, second compound 10 µM
  IC50: < 31.6 nM
[12]
  viability, T/C: 73.9%
[13]
  viability, T/C: 45.7%
[14]
  viability, T/C: 19%
[15]
  viability, T/C: 12.3%
[16]
  viability, T/C: 10.2%
[17]
  viability, T/C: 10.2%
[18]
  viability, T/C: 68.8%
[19]
  viability, T/C: 39.7%
[20]
  viability, T/C: 18.6%
[21]
  viability, T/C: 10.9%
[22]
  viability, T/C: 9.74%
[23]
  viability, T/C: 10.6%
[24]
  viability, T/C: 47.1%
[25]
  viability, T/C: 30.1%
[26]
  viability, T/C: 14.5%
[27]
  viability, T/C: 11.1%
[28]
  viability, T/C: 8.76%
[29]
  viability, T/C: 6.3%
[30]
  viability, T/C: 0.09%
[31]
  viability, T/C: 0.29%
[32]
  viability, T/C: 0.03%
[33]
  viability, T/C: 0.03%
[34]
  viability, T/C: 0.03%
[35]
  viability, T/C: 0.11%
Second compound 10 µM, first compound 0.0316 µM
  viability, T/C: 0.08%
Second compound 10 µM, first compound 0.1 µM
  viability, T/C: 0.09%
Second compound 10 µM, first compound 0.316 µM
  viability, T/C: 0.1%
Second compound 10 µM, first compound 1 µM
  viability, T/C: 0.09%
Second compound 10 µM, first compound 3.16 µM
  viability, T/C: 0.1%
Second compound 10 µM, first compound 10 µM
  viability, T/C: 0.15%
